In patent US20050124607A1, “5-Substituted quinazolinone compounds useful as alpha 1A/B adrenergic receptor antagonists” (priority 2003, published 2005):

Key:
alpha1A adrenoceptor = biological target: T1, alpha1A adrenoceptor (Homo sapiens, UniProt P35348); test: [3H]prazosin binding (alpha1-adrenoceptor) assay, alpha 1A; settings: transfected CHO-K1 cell membranes, read-out: pKi alpha 1A (converted)
T1 construct: expressed in transfected cells; host or cells: CHO-K1
T1 sequence (P35348 1-466): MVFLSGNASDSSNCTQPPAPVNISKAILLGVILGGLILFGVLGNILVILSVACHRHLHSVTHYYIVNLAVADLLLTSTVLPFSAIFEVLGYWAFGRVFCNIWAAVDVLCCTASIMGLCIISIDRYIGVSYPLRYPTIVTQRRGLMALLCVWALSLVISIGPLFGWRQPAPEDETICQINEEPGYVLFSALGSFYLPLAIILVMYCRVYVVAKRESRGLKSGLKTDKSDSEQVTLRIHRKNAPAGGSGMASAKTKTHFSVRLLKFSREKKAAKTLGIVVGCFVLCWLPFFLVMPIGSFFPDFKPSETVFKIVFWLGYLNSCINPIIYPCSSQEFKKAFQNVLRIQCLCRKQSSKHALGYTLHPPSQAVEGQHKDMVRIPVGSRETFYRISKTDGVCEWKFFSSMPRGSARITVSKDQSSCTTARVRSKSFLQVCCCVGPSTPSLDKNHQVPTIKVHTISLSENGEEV
Protocol: (§1) Alpha1 A, alpha1B, and alpha1D adrenoceptor transfected CHO-K1 cells, prepared using the methods described by Chang et al., FEBS Lett. 1998, 422:279-283, were grown to confluence in T-162 tissue culture flasks in Ham's F-12 culture medium supplemented with 10% fetal bovine serum, geneticin (150 μg/mL) and streptomycin/penicillin (30 μg/mL/30 μg/mL) at 37° C. in 7% CO2. Cells were harvested by incubating with phosphate-buffered saline (PBS) containing 30 μM EDTA for 5-10 min at 37° C. Cells were pelleted by centrifuging at 500×g for 5 min, and the pelleted cells were homogenized (Polytron homogenizer) in 10 vols (w/v) of 50 mM Tris, 1 mM EDTA, (homogenisation buffer, pH 7.4 at 4° C.). The homogenate was centrifuged at 45,000×g for 20 min. The pellet was resuspended in the homogenizing buffer and rehomogenized. The resulting homogenate was centrifuged at 45,000×g for 20 min. The pellet was resuspended in 50 mM Tris buffer (pH 7.4 at 4° C.), aliquoted, frozen, and stored at −80° C. for further use.
(§2) The membranes were thawed at rt and diluted in assay buffer (50 mM Tris buffer at […]) at 37° C. and homogenized using the Polytron tissue disrupter. The membranes were incubated with the radioligand ([^3H]prazosin, NEN, 0.1-0.5 nM) and test compound at 37° C. for 30 min. The membranes were then filtered over polyethyleneimine-treated GF/B unifilter plates using a Packard Filtermate Harvester and washed with ice-cold 50 mM Tris-HCl, 1 mM EDTA buffer (3×3 sec. washes). Scintillation cocktail was added to the filter plates and bound radioligand determined by liquid scintillation spectrophotometry.
(§3) For each experiment, total binding (in the absence of any test or reference compounds) and non-specific binding (10 μM phentolamine) were determined. For each sample tested, the concentration producing 50% inhibition of binding (IC50) and Hill Slope (nH) was determined using iterative non-linear curve fitting techniques with Kaleidagraph (Synergy Software) or other appropriate software. If the radioligand KD was known, the inhibition dissociation constant (KI) of each ligand was determined according to the method of Cheng and Prusoff (Cheng, Y-C. and Prusoff, W. H., Biochem.Pharmacol., 1973, 22, 3099-3108).

alpha1B adrenoceptor = biological target: T2, alpha1B adrenoceptor (Homo sapiens, UniProt P35368); test: [3H]prazosin binding (alpha1-adrenoceptor) assay, alpha 1B; settings: transfected CHO-K1 cell membranes, read-out: pKi alpha 1B (converted)
T2 construct: expressed in transfected cells; host or cells: CHO-K1
T2 sequence (P35368 1-520): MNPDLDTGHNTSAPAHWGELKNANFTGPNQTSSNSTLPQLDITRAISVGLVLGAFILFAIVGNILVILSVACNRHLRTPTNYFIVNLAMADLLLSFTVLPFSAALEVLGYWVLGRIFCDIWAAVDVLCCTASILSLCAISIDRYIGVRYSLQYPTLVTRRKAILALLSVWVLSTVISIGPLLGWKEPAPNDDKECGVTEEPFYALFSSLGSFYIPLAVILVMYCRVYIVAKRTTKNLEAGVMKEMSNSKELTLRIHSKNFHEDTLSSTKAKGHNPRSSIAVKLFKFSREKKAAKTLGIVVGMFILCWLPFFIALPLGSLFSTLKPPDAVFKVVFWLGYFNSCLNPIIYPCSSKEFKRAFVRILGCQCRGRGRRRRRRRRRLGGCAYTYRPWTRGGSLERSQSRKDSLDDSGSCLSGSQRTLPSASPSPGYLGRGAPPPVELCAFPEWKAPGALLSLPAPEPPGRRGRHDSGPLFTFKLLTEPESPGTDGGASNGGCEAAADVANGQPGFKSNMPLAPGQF
Protocol: as §1, §2, §3

alpha1D adrenoceptor = biological target: T3, alpha1D adrenoceptor (Homo sapiens, UniProt P25100); test: [3H]prazosin binding (alpha1-adrenoceptor) assay, alpha 1D; settings: transfected CHO-K1 cell membranes, read-out: pKi alpha 1D (converted)
T3 construct: expressed in transfected cells; host or cells: CHO-K1
T3 sequence (P25100 1-572): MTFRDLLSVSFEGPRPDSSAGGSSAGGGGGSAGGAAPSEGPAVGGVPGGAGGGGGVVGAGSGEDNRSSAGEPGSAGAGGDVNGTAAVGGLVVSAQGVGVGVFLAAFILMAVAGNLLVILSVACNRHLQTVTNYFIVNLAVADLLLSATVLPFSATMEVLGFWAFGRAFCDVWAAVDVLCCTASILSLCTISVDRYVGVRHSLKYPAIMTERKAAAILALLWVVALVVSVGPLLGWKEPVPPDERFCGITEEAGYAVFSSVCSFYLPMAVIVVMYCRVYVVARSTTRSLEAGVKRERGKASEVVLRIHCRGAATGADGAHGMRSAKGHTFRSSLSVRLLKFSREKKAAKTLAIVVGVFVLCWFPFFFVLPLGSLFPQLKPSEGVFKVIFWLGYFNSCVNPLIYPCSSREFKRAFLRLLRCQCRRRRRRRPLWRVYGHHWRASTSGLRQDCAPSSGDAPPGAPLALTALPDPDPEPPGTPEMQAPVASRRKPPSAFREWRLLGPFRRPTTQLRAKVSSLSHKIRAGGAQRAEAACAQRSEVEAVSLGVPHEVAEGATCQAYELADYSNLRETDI
Protocol: as §1, §2, §3

Row | SMILES | Ki (alpha1A adrenoceptor) [nM] | Ki (alpha1B adrenoceptor) [nM] | Ki (alpha1D adrenoceptor) [nM] | melting point [°C]
1 | COc1cc2[nH]c(N3CCC4(CC3)CN(c3ccc(F)cc3)C(=O)CO4)nc(=O)c2c(OC)c1OC | 6.17 | 13.8 | 257 | 
2 | COc1cc2[nH]c(N3CCN(c4ncc[nH]4)CC3)nc(=O)c2c(OC)c1OC [2-[4-(1H-Imidazol-2-yl)-piperazin-1-yl]-5,6,7-tri-methoxy-1H-quinazolin-4-one] | 1.12 | 2.51 | 457 | 
3 | COc1cc2[nH]c(N3CCC(CCn4ccnc4)CC3)nc(=O)c2c(C)c1OC [2-[4-(2-Imidazol-1-yl-ethyl)-piperidin-1-yl]-6,7-di-methoxy-5-methyl-1H-quinazolin-4-one] | 5.25 | 2.19 | 87.1 | 
4 | CCCC(=N)Nc1cccc2c1CCN(c1nc(=O)c3c(OC)c(OC)c(OC)cc3[nH]1)C2 [Example 115, N-[2-(5,6,7-Trimethoxy-4-oxo-1,4-di-hydro-quina-zolin-2-yl)-1,2,3,4-tetra-hydro-isoquinolin-5-yl]-butyramidine] |  |  |  | 192.2 to 193.5
5 | COc1cc2[nH]c(N3CCc4c(cccc4NC(=N)c4ccco4)C3)nc(=O)c2c(OC)c1OC [Example 117, N-[2-(5,6,7-Trimethoxy-4-oxo-1,4-di-hydro-quina-zolin-2-yl)-1,2,3,4-tetra-hydro-isoquinolin-5-yl]-furan-2-car-boxamidine] |  |  |  | 223.9 to 225.9
6 | COc1cc2c(cc1OC)CN(c1nc(=O)c3c(-c4ccc(F)cc4)c(OC)c(OC)cc3[nH]1)CC2 [Example 120, 2-(6,7-Dimethoxy-3,4-di-hydro-1H-isoquino-lin-2-yl)-5-(4-fluoro-phe-nyl)-6,7-dimethoxy-1H-quina-zolin-4-one] |  |  |  | 220 to 225
7 | COc1cc2[nH]c(N3CCc4c(cccc4/N=C(\C)N(C)C)C3)nc(=O)c2c(OC)c1OC [Example 122, N,N-Dimethyl-N′-[2-(5,6,7-tri-methoxy-4-oxo-1,4-di-hydro-quinazolin-2-yl)-1,2,3,4-tetra-hydro-iso-quinolin-5-yl]-acetamidine] |  |  |  | 223.5 to 226.6
8 | COc1cc2[nH]c(N3CCc4c(cccc4NC(=N)C4CCC4)C3)nc(=O)c2c(C)c1OC [Example 123, N-[2-(6,7-Dimethoxy-5-meth-yl-4-oxo-1,4-di-hydro-quinazolin-2-yl)-1,2,3,4-tetra-hydro-isoquinolin-5-yl]-cyclo-butanecarboxamidine] |  |  |  | 252.1 to 256.1
9 | COc1cc2[nH]c(N3CCc4c(cccc4NC(=N)c4ccco4)C3)nc(=O)c2c(C)c1OC [Example 124, N-[2-(6,7-Dimethoxy-5-meth-yl-4-oxo-1,4-di-hydro-quinazolin-2-yl)-1,2,3,4-tetra-hydro-iso-quinolin-5-yl]-furan-2-carboxamidine] |  |  |  | 279 to 282
10 | CCCC(=N)Nc1cccc2c1CCN(c1nc(=O)c3c(C)c(OC)c(OC)cc3[nH]1)C2 [Example 125, N-[2-(6,7-Dimethoxy-5-meth-yl-4-oxo-1,4-di-hydro-quinazolin-2-yl)-1,2,3,4-tetra-hydro-isoquinolin-5-yl]-butyramidine] |  |  |  | 254.3 to 257.1
11 | COc1cc2[nH]c(N3CCc4ccc(/N=C(\C)N(C)C)cc4C3)nc(=O)c2c(C)c1OC [Example 132, N′-[2-(6,7-Dimethoxy-5-meth-yl-4-oxo-1,4-di-hydro-quinazolin-2-yl)-1,2,3,4-tetra-hydro-isoquinolin-7-yl]-N,N-di-methyl-acetamidine] |  |  |  | 176 to 177.1
12 | COc1cc2c(cc1OC)CN(c1nc(=O)c3c(F)c(OC)c(OC)cc3[nH]1)CC2 [Example 133, 2-(6,7-Dimethoxy-3,4-di-hydro-1H-isoquino-lin-2-yl)-5-fluoro-6,7-di-methoxy-1H-quina-zolin-4-one] |  |  |  | 260.8 to 269
13 | COc1cc2c(cc1OC)CN(c1nc(=O)c3c(Cl)c(OC)c(OC)cc3[nH]1)CC2 [Example 134, 5-Chloro-2-(6,7-di-methoxy-3,4-dihydro-1H-iso-quinolin-2-yl)-6,7-di-methoxy-1H-quinazolin-4-one] |  |  |  | 255.4 to 259.9
14 | COc1cc2[nH]c(N3CCc4c(ncnc4N4CCOCC4)C3)nc(=O)c2c(C)c1OC [Example 136, 6,7-Dimethoxy-5-meth-yl-2-(4-morpholin-4-yl-5,8-di-hydro-6H-py-rido[3,4-d]pyrimidin-7-yl)-1H-quina-zolin-4-one] |  |  |  | > 300
15 | COc1cc2[nH]c(N3CCCC3c3cccc(N4CCN=C4C)c3)nc(=O)c2c(OC)c1OC (stereo not drawn) [Example 138, 5,6,7-Trimethoxy-2-{2-[3-(2-meth-yl-4,5-di-hydro-imidazol-1-yl)-phe-nyl]-pyrrolidin-1-yl}-1H-quina-zolin-4-one] |  |  |  | 205.1 to 209.1
16 | COc1cc2[nH]c(N3CCCC3c3cccc(NCCNC(C)=O)c3)nc(=O)c2c(OC)c1OC (stereo not drawn) [Example 139, N-(2-{3-[1-(5,6,7-Tri-methoxy-4-oxo-1,4-di-hydro-quinazolin-2-yl)-pyr-rolidin-2-yl]-phenyl-amino}-ethyl)-acetamide] |  |  |  | 188.6 to 191
17 | COc1cc2[nH]c(N3CCC(c4cccc(/N=C(\C)N(C)C)c4)C3)nc(=O)c2c(C)c1OC (stereo not drawn) [Example 142, N′-{3-[1-(6,7-Di-methoxy-5-methyl-4-oxo-1,4-di-hydro-quina-zolin-2-yl)-pyr-rolidin-3-yl]-phenyl}-N,N-di-methyl-acetamidine] |  |  |  | 152.2 to 154.4
18 | COc1cc2[nH]c(N3CCc4c(cccc4/N=C(/C)N(C)C)C3)nc(=O)c2c(C)c1OC [Example F-1, N′-[2-(6,7-Dimethoxy-5-methyl-4-oxo-1,4-dihydro-quinazolin-2-yl)-1,2,3,4-tetrahydro-isoquinolin-5-yl]-N,N-dimethyl-acetamidine] |  |  |  | 270.9 to 273.5
19 | CNCC(=O)N(C)Cc1cccc2c1CCN(c1nc(=O)c3c(C)c(OC)c(OC)cc3[nH]1)C2 [N-[2-(6,7-Dimethoxy-5-methyl-4-oxo-1,4-dihydro-quinazolin-2-yl)-1,2,3,4-tetrahydro-isoquinolin-5-ylmethyl]-N-methyl-2-methylamino-acetamide] | 1.58 | 1.58 | 79.4 | 
